Common to all, as to test: Post-emergence efficacy, glasshouse spray test
What all share (type): in vivo

Assay [1] has as its system Amaranthus palmeri (AMAPA). To be noted: Amaranthus palmeri, post-emergence, 312 h, evaluated after 13 days, read-out: Control of weed species AMAPA after post-emergence application (100=total damage to plant; 0=no damage to plant); for pest or weed control at 1000 g/ha: application rate 1000 g/Ha. In short, it runs like this: (§1)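 Plants sown in standard soil were grown 14 days in a glasshouse (24/16 °C day/night, 14 h light, 65% humidity) and then sprayed post-emergence. Compound in acetone/IF50 emulsifier mix was diluted in 0.25% or 1% Empicol ESC70 + 1% ammonium sulphate. Damage was scored after 13 days (0 = none, 100 = total).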

For a further assay, the system named is Setaria faberi (SETFA). To be noted: Setaria faberi, post-emergence, 312 h, evaluated after 13 days, read-out: Control of weed species SETFA after post-emergence application (100=total damage to plant; 0=no damage to plant); for pest or weed control at 1000 g/ha: application rate 1000 g/Ha. In short, it runs like this:
as §1

Assay [2] relates to Echinochloa crus-galli (ECHCG). The note with it: Echinochloa crus-galli, post-emergence, 312 h, evaluated after 13 days, read-out: Control of weed species ECHCG after post-emergence application (100=total damage to plant; 0=no damage to plant); for pest or weed control at 1000 g/ha: application rate 1000 g/Ha. The method, boiled down:
as §1

Assay [3] concerns Chenopodium album (CHEAL). The note with it: Chenopodium album, post-emergence, 312 h, evaluated after 13 days, read-out: Control of weed species CHEAL after post-emergence application (100=total damage to plant; 0=no damage to plant); for pest or weed control at 1000 g/ha: application rate 1000 g/Ha. The method, boiled down:
as §1

The subject of assay [4] is Euphorbia heterophylla (EPHHL). To be noted: Euphorbia heterophylla, post-emergence, 312 h, evaluated after 13 days, read-out: Control of weed species EPHHL after post-emergence application (100=total damage to plant; 0=no damage to plant); for pest or weed control at 1000 g/ha: application rate 1000 g/Ha. The method, boiled down: as §1
In assay [5] the test system is Digitaria sanguinalis (DIGSA). To be noted: Digitaria sanguinalis, post-emergence, 312 h, evaluated after 13 days, read-out: Control of weed species DIGSA after post-emergence application (100=total damage to plant; 0=no damage to plant); for pest or weed control at 1000 g/ha: application rate 1000 g/Ha. In short, it runs like this:
as §1

For another assay, the system named is Lolium perenne (LOLPE). To be noted: Lolium perenne, post-emergence, 312 h, evaluated after 13 days, read-out: Control of weed species LOLPE after post-emergence application (100=total damage to plant; 0=no damage to plant); for pest or weed control at 1000 g/ha: application rate 1000 g/Ha. In short, it runs like this: as §1
In assay [6] the test system is Ipomoea hederacea (IPOHE). To be noted: Ipomoea hederacea, post-emergence, 312 h, evaluated after 13 days, read-out: Control of weed species IPOHE after post-emergence application (100=total damage to plant; 0=no damage to plant); for pest or weed control at 1000 g/ha: application rate 1000 g/Ha. In short, it runs like this: as §1
In the next assay the test system is Eleusine indica (ELEIN). To be noted: Eleusine indica, post-emergence, 312 h, evaluated after 13 days, read-out: Control of weed species ELEIN after post-emergence application (100=total damage to plant; 0=no damage to plant); for pest or weed control at 1000 g/ha: application rate 1000 g/Ha. In short, it runs like this: as §1

Counter-ions that a name gives are not always drawn.

For `O=S(=O)([O-])CC[n+]1cc(-c2ccccc2)c2ccccc2n1` [Compound A51], the pest or weed control at 1000 g/ha was found to be 90% in assay [1]; 30% in the assay with Setaria faberi (SETFA); 20% in assay [2]; 30% in assay [3]; 60% in [4]; 40% in assay [5]. Besides, the pest or weed control at 1000 g/ha in the assay on Lolium perenne (LOLPE) came out at 10%; in [6] it was 30%; in the assay on Eleusine indica (ELEIN) it was 30%.
As for `O=S(=O)([O-])CC[n+]1ccc2cccc(-c3ccccc3)c2n1` [Compound A52, 2-(8-phenylcinnolin-2-ium-2-yl)ethanesulfonate], the pest or weed control at 1000 g/ha in [1] amounted to 100%; in the assay with Setaria faberi (SETFA), 30%; in assay [2], 20%; in assay [3], 40%; in assay [4], 100%; in [5] it was 40%. The values for the pest or weed control at 1000 g/ha (in the assay on Lolium perenne (LOLPE); in [6]; with Eleusine indica (ELEIN)) were 20%, 30% and 70%, respectively.
For `O=S(=O)([O-])CC[n+]1ccc2cc(-c3ccccc3)ccc2n1` [Compound A53], the pest or weed control at 500 g/ha came out at 20% in assay [1] (application rate 500 g/Ha); 10% in the assay on Setaria faberi (SETFA) (application rate 500 g/Ha); 0% in assay [2] (application rate 500 g/Ha); 0% in [3] (application rate 500 g/Ha); 20% in [4] (application rate 500 g/Ha); 10% in assay [5] (application rate 500 g/Ha). Moreover, the pest or weed control at 500 g/ha in the assay on Lolium perenne (LOLPE) (application rate 500 g/Ha) was determined as 0%; in assay [6] (application rate 500 g/Ha) it was 10%; in the assay with Eleusine indica (ELEIN) (application rate 500 g/Ha), 40%.
With `CC#Cc1c[n+](CCOS(=O)(=O)[O-])nc2ccccc12` [Compound A54, 2-(4-prop-1-ynylcinnolin-2-ium-2-yl)ethyl sulfate], the pest or weed control at 1000 g/ha was 30% in assay [1]; 20% in the assay with Setaria faberi (SETFA); 10% in [2]; 40% in assay [3]; 30% in assay [4]; 30% in assay [5]. Further, the values for the pest or weed control at 1000 g/ha (with Lolium perenne (LOLPE); in [6]; with Eleusine indica (ELEIN)) were 10%, 10% and 30%, respectively.
Take `O=C(O)c1ccccc1C[n+]1ccc2ccccc2n1` [Compound A55]: the pest or weed control at 1000 g/ha is 10% in assay [1]; 0% with Setaria faberi (SETFA); 20% in [2]; 30% in assay [3]; 30% in assay [4]; 10% in assay [5]. Further, the pest or weed control at 1000 g/ha with Lolium perenne (LOLPE) was 0%; in assay [6], 30%; with Eleusine indica (ELEIN) it was 10%.
For `O=S(=O)(O)OCC[n+]1nc2ccccc2cc1Cl` [Compound A56], the pest or weed control at 1000 g/ha in [1] was determined as 0%; in the assay with Setaria faberi (SETFA), 20%; in assay [2], 10%; in assay [3], 0%; in [4] it was 50%; in assay [5] it was 20%. In addition, the pest or weed control at 1000 g/ha with Lolium perenne (LOLPE) came out at 0%; in assay [6], 0%; in the assay on Eleusine indica (ELEIN), 30%.
Consider `COC(=O)C[n+]1ccc2cc(C)ccc2n1` [Compound A57], for which the pest or weed control at 1000 g/ha in assay [1] was 70%; in the assay on Setaria faberi (SETFA) it was 30%; in assay [2], 20%; in assay [3], 40%; in assay [4] it was 60%; in assay [5], 40%. In addition, the pest or weed control at 1000 g/ha in the assay on Lolium perenne (LOLPE) worked out at 10%; in assay [6], 20%; in the assay with Eleusine indica (ELEIN), 60%.
With `COC(=O)C[n+]1ccc2cccc(C)c2n1` [Compound A58], the pest or weed control at 1000 g/ha was 0% in assay [1]; 0% with Setaria faberi (SETFA); 10% in assay [2]; 30% in assay [3]; 20% in [4]; 0% in [5]. Besides, the pest or weed control at 1000 g/ha with Lolium perenne (LOLPE) turned out to be 0%; in [6] it was 10%; in the assay on Eleusine indica (ELEIN), 10%.
With `Cc1cccc2cc[n+](CC(=O)O)nc12` [Compound A59], the pest or weed control at 1000 g/ha in assay [1] is 30%; in the assay with Setaria faberi (SETFA), 20%; in assay [2], 20%; in assay [3] it was 60%; in assay [4], 20%; in [5] it was 20%. The pest or weed control at 1000 g/ha (in the assay on Lolium perenne (LOLPE); in assay [6]; in the assay with Eleusine indica (ELEIN)) was 10% throughout.
`COC(=O)C[n+]1ccc2cc(OC)ccc2n1` [Compound A60]: the pest or weed control at 1000 g/ha was found to be 0% in [1]; 10% in the assay with Setaria faberi (SETFA); 20% in [2]; 0% in assay [3]; 10% in assay [4]; 30% in assay [5]. Moreover, the pest or weed control at 1000 g/ha with Lolium perenne (LOLPE) stood at 10%; in [6] it was 30%; in the assay on Eleusine indica (ELEIN), 40%.
In the case of `COC(=O)CC[n+]1ccc2ccccc2n1` [Compound A61], the pest or weed control at 1000 g/ha was determined as 70% in assay [1]; 50% in the assay on Setaria faberi (SETFA); 60% in assay [2]; 60% in [3]; 70% in [4]; 80% in assay [5]. The figures for the pest or weed control at 1000 g/ha (in the assay with Lolium perenne (LOLPE); in assay [6]; in the assay on Eleusine indica (ELEIN)) were 10%, 60% and 90%, respectively.
Turning to `COC(=O)C[n+]1cc(C)c2ccccc2n1` [Compound A62], the pest or weed control at 1000 g/ha in assay [1] was 70%; with Setaria faberi (SETFA), 30%; in assay [2] it was 30%; in assay [3], 60%; in assay [4] it was 40%; in [5], 50%. Further, the pest or weed control at 1000 g/ha in the assay with Lolium perenne (LOLPE) turned out to be 40%; in assay [6] it was 50%; with Eleusine indica (ELEIN), 70%.

(Values after patent US20220046923A1, “HERBICIDAL CINNOLINIUM COMPOUNDS” (SYNGENTA CROP PROTECTION AG, priority 2018, published 2022).)
